For 1 compound, Km results are on record in PMC10972148, “Cloning and Characterization of a Novel N-Acetyl-D-galactosamine-4-O-sulfate Sulfatase, SulA1, from a Marine Arthrobacter Strain” (Marine Drugs, 2024).

The term Km denotes the concentration of substrate that gives half-maximal velocity.

Structures are written as SMILES.

In this assay the test system is T1, SulA1.
T1 construct: forward primer encodes MVSSSPA (translated here)
Put plainly: GalNAc release by HPAEC-PAD, Michaelis-Menten nonlinear fit. The class given is biochemical, Arthrobacter sp. MAT3885. The note with it: pH 5.5, 40 °C, 30 min, 0-20 mM substrate; 100 mM acetate buffer; unit not printed beside the value, taken from the mM axis of Figure 9B.

With `CC(=O)N[C@H]1C(O)O[C@H](CO)[C@H](OS(=O)(=O)O)[C@@H]1O` (stereo partly drawn) [GalNAc4S, N-Acetyl-D-galactosamine-4-sulfate], the Km worked out at 6.94 ± 0.053 mM.
